In assay [1] the target is COX1 (Homo sapiens, UniProt P23219). The note with it: compared with other types of deuterated arachidonic acid; unmodified arachidonic acid as control. The procedure: The effect of a high level of isotopically modified polyunsaturated lipid (e.g. arachidonic acids having deuterium at bis-allylic sites) on the enzymatic activity of cyclooxygenase (COX) was examined in vitro. The COX1 activity was measured by oxygen consumption (Clark electrode) in vitro. […] Arachidonic acid with no deuterium modification was used as a control.

Assay [2] has as its system Aldh2−/− mice. The conditions noted are these: Aldh2−/− mice as well as APP/PS1 and 3×Tg transgenic mice; cited from earlier work.

Sequence of COX1 (P23219 24-599): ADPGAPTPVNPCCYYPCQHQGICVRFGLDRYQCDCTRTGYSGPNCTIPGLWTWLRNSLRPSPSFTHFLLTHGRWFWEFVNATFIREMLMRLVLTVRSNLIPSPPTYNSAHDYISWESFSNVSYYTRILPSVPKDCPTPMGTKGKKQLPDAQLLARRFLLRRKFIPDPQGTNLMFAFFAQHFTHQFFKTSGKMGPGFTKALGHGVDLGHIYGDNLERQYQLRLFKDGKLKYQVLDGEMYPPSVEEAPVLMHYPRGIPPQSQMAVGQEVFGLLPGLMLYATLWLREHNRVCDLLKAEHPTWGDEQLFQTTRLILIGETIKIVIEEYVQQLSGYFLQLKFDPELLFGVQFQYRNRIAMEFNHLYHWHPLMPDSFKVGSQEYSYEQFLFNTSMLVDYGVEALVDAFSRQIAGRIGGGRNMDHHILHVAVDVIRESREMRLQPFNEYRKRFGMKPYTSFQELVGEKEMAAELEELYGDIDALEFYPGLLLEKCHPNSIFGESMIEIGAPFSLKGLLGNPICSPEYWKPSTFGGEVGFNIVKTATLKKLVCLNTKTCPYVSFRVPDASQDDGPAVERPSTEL

In the case of `[2H]C([2H])(/C=C\C/C=C\C/C=C\CCCC(=O)O)/C=C\CCCCC` [13,13-D2-arachidonic acid], the “reduction of COX1 activity” value in assay [1] is recorded as “most effective in reducing the activity of COX1”. For `Cc1ncsc1CCO[N+](=O)[O-].Cl` [NMZ, 4-methyl-5-(2-(nitrooxy)ethyl)thiazol-3-ium chloride], the memory result in assay [2] is recorded as “memory can be improved”.

(Values after US11166930B2, “Isotopically modified components and therapeutic uses thereof” (RETROTOPE, INC., priority 2016, dated 2021).)
